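Interpolation was linear, between the two tested concentrations surrounding the appropriate level; five concentrations were tested over 48 hours in 96-well plates. At the TGI there is no net growth.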
What was measured:
Experiment in all cases: inhibition of tumour cell growth, NCI panel, 48 h
OVCAR-8 ovarian = system: OVCAR-8 ovarian
UACC-62 melanoma = system: UACC-62 melanoma
U251 CNS = system: U251 CNS
NCI-H460 lung = system: NCI-H460 lung
NCI-H226 lung = system: NCI-H226 lung
786-0 renal = system: 786-0 renal
SNB-19 CNS = system: SNB-19 CNS
HOP-92 NSCLC = system: HOP-92 NSCLC
SF-295 CNS = system: SF-295 CNS
TK-10 renal = system: TK-10 renal

SMILES	TGI (OVCAR-8 ovarian)	TGI (UACC-62 melanoma)	TGI (U251 CNS)	TGI (NCI-H460 lung)	TGI (NCI-H226 lung)	TGI (786-0 renal)	TGI (SNB-19 CNS)	TGI (HOP-92 NSCLC)	TGI (SF-295 CNS)	TGI (TK-10 renal)
CC(C)C(C/C=C1/CC(CO)(COC(=O)CC(C(C)C)C(C)C)OC1=O)C(C)C (stereo not given)	29.7 µM	30.1 µM	25.3 µM	20 µM	22.6 µM	23.3 µM	25.8 µM	18.7 µM	16.5 µM	16.1 µM
c1ccc(N=C2SC(=NNc3ccccc3)SC2=Nc2ccccc2)cc1	> 100 µM	> 100 µM	> 100 µM	> 100 µM	> 100 µM	> 100 µM	> 100 µM	> 100 µM	> 100 µM	> 100 µM
O=C(CN1CCN(C(=O)OCc2ccccc2)CCN(CC(=O)N2CCCCC2)CCN(C(=O)OCc2ccccc2)CC1)N1CCCCC1	33.8 µM	38.8 µM	34.4 µM	26.7 µM	36.6 µM	> 45.9 µM	> 52.5 µM	27.2 µM	41.1 µM	26.5 µM
CCC1CC2CN3CCc4c([nH]c5c(-c6c(OC)ccc7c8c([nH]c67)[C@]6(C(=O)OC)CC7CC(CC)C6N(CC8)C7)c(O)ccc45)[C@](C(=O)OC)(C2)C13 (stereo not given in full)	49.7 µM	29.6 µM	25.7 µM	29.2 µM	22 µM	28 µM	35.8 µM	26.6 µM	36.1 µM	33.4 µM
Cc1ccc(/C=C/C(=O)c2c([O-])on[n+]2-c2ccccc2)cc1	4.05 µM	3.12 µM	10.7 µM	6.38 µM	> 45.6 µM	3.78 µM	> 33.5 µM	16.8 µM	> 46.4 µM	10.3 µM
O=C(Cn1nc(Br)c(Br)c1Br)c1ccccc1	> 100 µM	56.9 µM	> 100 µM	63.9 µM	63.5 µM	77.4 µM	> 100 µM	66.8 µM	91.5 µM	53.1 µM
CC(=O)O[C@H]1C[C@]2(C)C(CCC3O[C@@]32C)[C@@]2(CC(c3ccoc3)OC2O)[C@@H]1C (stereo not given in full)	> 100 µM	> 100 µM	> 100 µM	> 100 µM	> 100 µM	> 100 µM	> 100 µM	> 100 µM	> 100 µM	> 100 µM
CCc1n[nH]c(=O)n1N1C(=O)C2CC=CCC2C1=O (stereo not given)	> 100 µM	> 100 µM	> 100 µM	> 100 µM	> 100 µM	> 100 µM	> 100 µM	> 100 µM	> 100 µM	> 100 µM
Cc1ccc2c(c1)NC(=O)CCSSCCC(=O)N2	> 100 µM	> 100 µM	> 100 µM	> 100 µM	> 100 µM	> 100 µM	> 100 µM	> 100 µM	> 100 µM	> 100 µM
COc1ccc(C2SCC(=O)N2c2ccc(-c3ccc(-n4c(-c5ccccc5)nc5ccccc5c4=O)cc3)cc2)cc1 (stereo not given)	> 100 µM	> 100 µM	> 100 µM	> 100 µM	> 100 µM	> 100 µM	> 100 µM	> 100 µM	> 100 µM	> 100 µM
CN(C)CCNc1ccc([N+](=O)[O-])c2nc3ccccc3c(N)c12	> 10 µM	3.54 µM	> 10 µM	1.66 µM	> 10 µM	> 10 µM	> 10 µM	7.71 µM	8.1 µM	> 10 µM
O=C(CSc1nc(=O)[nH]c2nc[nH]c12)Nc1ccccc1	> 100 µM	> 100 µM	> 100 µM	> 100 µM	> 100 µM	> 100 µM	> 100 µM	> 100 µM	> 100 µM	> 100 µM
C/C(=N\Nc1ccc([N+](=O)[O-])cc1[N+](=O)[O-])c1ccc2ccccc2n1	> 100 µM	> 100 µM	> 100 µM	> 100 µM	> 100 µM	> 100 µM	94.4 µM	> 100 µM	> 100 µM	> 100 µM
COC(=O)CC1(CNC(=O)OCc2ccccc2)OCCO1	> 100 µM	> 100 µM	> 100 µM	> 100 µM	> 100 µM	> 100 µM	> 100 µM	> 100 µM	> 100 µM	> 100 µM
N#CCC(=O)Nn1c(CC#N)nnc1Cc1ccccc1	> 100 µM	> 100 µM	> 100 µM	> 100 µM	> 100 µM	> 100 µM	> 100 µM	> 100 µM	> 100 µM	> 100 µM
COc1cc(/C=C/C(C)=O)ccc1OP(=O)(O)O	> 100 µM	> 100 µM	> 100 µM	> 100 µM	> 100 µM	> 100 µM	> 100 µM	> 100 µM	> 100 µM	> 100 µM
Cc1nn(C(=O)c2ccc(Cl)cc2)c2c1C(c1ccc([N+](=O)[O-])cc1)SC(N)=N2 (stereo not given)	> 10 µM	> 10 µM	> 10 µM	> 10 µM	> 10 µM	> 10 µM	> 10 µM	> 10 µM	> 10 µM	> 10 µM
Cc1ccc(C(=O)C(C)N)cc1 (stereo not given)	> 100 µM	> 100 µM	> 100 µM	> 100 µM	> 100 µM	> 100 µM	> 100 µM	> 100 µM	> 100 µM	> 100 µM
NNC(=O)CNC(=O)CSc1nnc(COc2ccc(Cl)cc2)n1-c1ccccc1	> 100 µM	> 100 µM	> 100 µM	> 100 µM	> 100 µM	> 100 µM	> 100 µM	> 100 µM	> 100 µM	> 100 µM
CCCN1C(=O)CCC2=C1CCc1c2ccc(Cl)c1Cl	> 100 µM	5.44 µM	> 100 µM	> 100 µM	> 100 µM	> 100 µM	> 100 µM	56.6 µM	> 100 µM	49.5 µM
O=C(/C=C/c1ccc(O)c(O)c1)OCCc1cccc2ccccc12	19.9 µM	15 µM	21.7 µM	29.9 µM	58.6 µM	12.7 µM	28.4 µM	23.8 µM	17.9 µM	13.6 µM

SMILES	TGI (OVCAR-8 ovarian)	TGI (UACC-62 melanoma)	TGI (U251 CNS)	TGI (NCI-H460 lung)	TGI (NCI-H226 lung)	TGI (786-0 renal)	TGI (SNB-19 CNS)	TGI (HOP-92 NSCLC)	TGI (SF-295 CNS)	TGI (TK-10 renal)
CC(=O)OCC1OC(n2c(N)c(C#N)c(-c3ccccc3)c(C#N)c2=S)C(OC(C)=O)C(OC(C)=O)C1OC(C)=O (stereo not given)	> 100 µM	> 100 µM	59.1 µM	> 100 µM	> 100 µM	> 86.4 µM	> 75.4 µM	50.9 µM	> 93 µM	> 100 µM
O=C(Oc1ccccc1)c1cc2cc(CCl)ccc2oc1=O	> 100 µM	27.5 µM	> 100 µM	51.6 µM	> 100 µM	64.4 µM	> 100 µM	28.7 µM	98.4 µM	43.8 µM
O=C1C2C=CC1C1C(=O)OC(=O)C21 (stereo not given)	> 100 µM	> 100 µM	> 100 µM	> 100 µM	> 100 µM	> 100 µM	> 100 µM	> 100 µM	> 100 µM	> 100 µM
CC(C)CCC1(O)O[C@H]2C[C@H]3[C@@H]4CCC5CC(=O)C=C[C@]5(C)[C@H]4CC[C@]3(C)[C@H]2[C@@H]1C (stereo not given in full)	30.5 µM	28 µM	23.7 µM	22.2 µM	14.8 µM	25.4 µM	31.3 µM	16 µM	24 µM	24.2 µM
COc1ccc(/C=C2\CSC/C(=C\c3ccc(OC)c(OC)c3OC)C2=O)c(OC)c1OC	80.8 µM	30.4 µM	> 100 µM	> 100 µM	> 100 µM	48.1 µM	> 100 µM	96.1 µM	99.6 µM	> 100 µM
O=C1OC(c2ccc(O)c(Cl)c2)(c2ccc(O)c(Cl)c2)c2ccc(Br)c3cccc1c23 (tested in a mixture with another compound)	51.9 µM	26.1 µM	38.2 µM	34.7 µM	41.1 µM	35.8 µM	44.4 µM	26.1 µM	36.6 µM	37 µM
CCOc1ccccc1/C=C1\NC(=O)N(/C=C2\C(=O)Oc3ccccc3C2=O)C1=O	> 100 µM	> 100 µM	> 100 µM	> 100 µM	> 100 µM	> 100 µM	> 100 µM	67.9 µM	> 100 µM	74.7 µM
CCSC1=N/C(=C\c2ccccc2O)C(Nc2ccc(C)cc2)=N1	> 100 µM	> 100 µM	> 100 µM	> 100 µM	> 100 µM	> 100 µM	> 100 µM	> 100 µM	> 100 µM	> 100 µM
O=C1c2ccccc2-c2nc(-c3cccnc3)cc3c2c1nc1ccccc13	> 100 µM	> 100 µM	> 100 µM	> 100 µM	> 100 µM	> 100 µM	> 100 µM	> 100 µM	> 100 µM	> 100 µM
COC(=O)C(CCC1C=CCC1)N=Cc1ccccc1 (stereo not given)	> 100 µM	> 100 µM	> 100 µM	> 100 µM	> 100 µM	> 100 µM	> 100 µM	> 100 µM	> 100 µM	> 100 µM
CC(=O)Oc1ccc2c(c1)c1c(=O)oc(N(C)C)nc1n2Cc1ccccc1	> 100 µM	> 100 µM	> 100 µM	> 100 µM	> 100 µM	> 100 µM	> 100 µM	> 100 µM	> 100 µM	> 100 µM
CC(C)(C)c1ccc(CN2CCN(C(c3ccccc3)c3ccc(Cl)cc3)CC2)cc1 (stereo not given)	> 100 µM	> 100 µM	> 100 µM	> 100 µM	62.2 µM	> 100 µM	> 100 µM	> 100 µM	> 100 µM	> 100 µM
COc1cc(-c2[nH]ccc2Cl)oc1C1=C2N=C3C=C2C(C(C)C)C1CCCCCCCC3 (stereo not given)	1.83 µM	1.91 µM	1.89 µM	1.53 µM	3.51 µM	2.34 µM	5.92 µM	3.59 µM	2.39 µM	5.19 µM
CC(C)OP(=O)(CN(C)/C(F)=N\C(F)(F)F)OC(C)C	> 100 µM	> 100 µM	> 100 µM	> 100 µM	> 100 µM	> 100 µM	> 100 µM	> 100 µM	> 100 µM	> 100 µM
CN1C(c2ccccc2)=CC(=O)C(O)=C(c2ccccc2)S1(=O)=O	> 100 µM	> 100 µM	> 100 µM	> 100 µM	> 100 µM	> 100 µM	> 100 µM	> 100 µM	> 100 µM	> 100 µM
C1COC(NC(C2CC2)C2CC2)=N1	> 100 µM	> 100 µM	> 100 µM	> 100 µM	> 100 µM	> 100 µM	> 100 µM	> 100 µM	> 100 µM	> 100 µM
NC1CC(=O)c2csc(Br)c21 (stereo not given)	33.6 µM	33.2 µM	> 60 µM	> 67.4 µM	69.2 µM	> 50.7 µM	> 80.3 µM	24.5 µM	> 100 µM	27.6 µM
Nc1nc(Cl)cc(NCC2(CO)CCC(Cc3ccccc3)C2)n1 (stereo not given)	> 100 µM	40.1 µM	> 100 µM	> 100 µM	98.7 µM	> 100 µM	> 100 µM	> 93.8 µM	> 100 µM	> 77 µM
O=P(O)(O)C(O)/C=C/c1ccccc1 (stereo not given)	> 100 µM	> 100 µM	> 100 µM	> 100 µM	> 100 µM	> 100 µM	> 100 µM	> 100 µM	> 100 µM	> 100 µM
CC(=O)Nc1ccc(CNc2cc(=O)[nH]c(=O)[nH]2)cc1	> 100 µM	> 100 µM	> 100 µM	> 100 µM	> 100 µM	> 100 µM	> 100 µM	> 100 µM	> 100 µM	> 100 µM
OCCN(CCO)c1ccc2c(C(F)(F)F)cc(C(F)(F)F)nc2n1	> 100 µM	> 100 µM	> 100 µM	> 100 µM	> 100 µM	> 100 µM	> 100 µM	> 100 µM	> 100 µM	> 100 µM

From PubChem BioAssay (NCI)
